In brackets after ≈: the same amount, converted by molar mass. Read-outs that look alike come from different tables or passages of the source. Non-standard residues stand in square brackets, D forms with d. Residues, ends and D or L forms follow the SMILES beside them. Aib = CC(C)(N)C(=O)O
Assays:
[1] = test system: ocular lenses from 8-month-old C57BL/6 mice; assay: Ex vivo lens stiffness screen, single-point variant of the coverslip method; design: species or system mouse; conditions: 20 mM; for Avg. % Compress.: lenses incubated 12 hours at 37° C., 588.0 mg coverslip weight
Procedure: An ex vivo screen was conducted to evaluate the effect of multiple compounds on lens stiffness using a more efficient variant of the coverslip method (Cheng, et al., J. Vis. Exp., 111: 53986 (2016). Our variant uses a single measurement point to enable multidrug screening, utilizing a weight deemed optimal based on coverslip quantity-response curves. Previously dissected and frozen eyes from 8-month-old C57BL/6 mice were thawed, and the ocular lenses were removed via micro-dissection. Next, intact ocular lenses were immersed and incubated in test compound solutions at various concentrations for 12 hours at 37° C. Individual washed lenses were placed into a divot in a solution-filled plexiglass measurement chamber, where uncompressed axial diameter was assessed. Then 3 glass coverslips glued together, with a total weight of 588.0 mg, were placed on top of the lens, and the axial diameter was remeasured. Change in lens stiffness was calculated as the ratio between the axial diameter of compressed lens to the axial diameter of the unweighted lens (compressed/uncompressed), with higher ratios indicative of more flexibility. To address an important limitation with ex vivo lens treatment (that lens stiffness increases over time, by default, when the lens is removed from the eye post-mortem), we compared treatment with NAC to freshly dissected 8-month lenses and observed natural stiffening occurred during the 12-hour incubation period (10.34% mean compression, n=10).

[2] = Maximum soluble concentration in artificial tears; type: physicochemical; conditions: saline or isotonic
[3] = test system: Eight-month-old C57BL/6 mice; assay: One-month eyedrop tolerability and histology in the aqueous humor study; type: in vivo; conditions: 100 mM eyedrops 2×/day for 1 month
Procedure: (§1) Eight-month-old C57BL/6 mice were given […] eyedrops of 100 mM N-(2-fluoro-2-methyl-1-propylcarbonyl)-cysteine, 100 mM N-pivaloylcysteine, or 100 mM NAC for 1 month at 2×/day. 10 mice were present in each group. […] Safety via histology was positive.

[4] = test system: lens stiffness in 7-month-old C57BL/6 mice; assay: In vivo efficacy: lens stiffness after eyedrop treatment (Example 4); design: species or system mouse; conditions: for average total compression: eyedrops, 28-day treatment, fluoro compound 200 mM, LACE 1.5% (PBS vehicle); for lens stiffness versus vehicle treated mice: fluoro compound 200 mM (also versus LACE), LACE 1.5%
Procedure: Rationale and goal: To determine the effect of N-acetylcysteine (NAC) and its variants on reducing lenses stiffness in vivo.
The following sample groups were tested in 7-month-old C57BL/6 mice: vehicle (artificial tears)(40 mice), N-acetylcysteine 20 mM (20 mice), N-(2-fluoro-2-methyl-1-propylcarbonyl)-cysteine 200 mM (10 mice), LACE (lipoic acid choline ester) 1.5% (PBS vehicle) (10 mice), 2-month-old mice (untreated) (7 mice).
Vehicle-treated mice averaged 199.34 micrometers total compression (std. dev 32.16). […] Mice treated with LACE averaged 209.68 micrometers total compression (std. dev 28.16).

[5] = test system: Two-month-old C57BL/6 mice; assay: Toxicology and dosing optimization in mice, 1 week of eyedrops (Example 5); type: in vivo, mouse
Procedure: A study was conducted to assess the maximum tolerable dose of N-(2-fluoro-2-methyl-1-propylcarbonyl)-cysteine (and its S-acetylated counterpart, N-(2-fluoro-2-methyl-1-propylcarbonyl)-S-acetylcysteine for lens stiffness reduction and to assess via histology whether any safety issues arose from 1 week of treatment with these compounds, particularly in the lens and cornea.
Two-month-old C57BL/6 mice were treated 2×/day with treatment compounds (see sample groups (n=5) and concentrations below). Animals were assessed for itching and scratching/blinking after dosing, hyperemia, lid swelling, discharge, and squinting, all on a scale of 1-4. Those scoring were blinded to treatment groups. Following euthanasia eyes were fixed and stained with H+E, and corneal and lens anatomy in the two highest concentration groups considered tolerable were assessed.

[6] = Aqueous humor LC/MS concentration comparison (corneal penetration); type: in vivo, mouse; conditions: 100 mM eyedrops 2×/day for 1 month; for concentration at 1 h: C57BL/6, mouse, aqueous humor, topical
Procedure: A study was conducted to assess the degree to which N-(2-fluoro-2-methyl-1-propylcarbonyl)-cysteine penetrated the mouse cornea, as compared to NAC and N-pivaloylcysteine.
as §1
On the final day aqueous humor was drawn from the eyes (average of 1-5 μL extracted) 1 hour after final dose, and the concentration of each compound quantified via LC/MS (column: Atlantis T3, 100×2.1 mm, 5 μm; mobile phases: A: Water/Formic Acid (1000/5, v/v), B: Acetonitrile/Methanol/Formic Acid (50/50/0.3, v/v/v).

[7] = test system: lens stiffness in 7-month-old C57BL/6 mice; assay: Initial in vivo lens stiffness test with NAC eyedrops for one month; design: species or system mouse
Procedure: An initial in vivo test was conducted on NAC utilizing 7-month-old C57BL/6 mice subsequently treated for one month 2×/day with both 100 mM and 20 mM NAC eyedrops (artificial tears was used as the vehicle). During the last day, animals were sacrificed, eyes enucleated, and lenses were removed. Lens stiffness was measured by the same assay as ex vivo, with measurements taken within 5-10 minutes of lens removal. Both a 588 mg and 1047 mg weight were used in the assay.

[8] = test system: ocular lenses from 8-month-old C57BL/6 mice; assay: Ex vivo lens stiffness screen, single-point variant of the coverslip method; design: species or system mouse; conditions: 1-hour of incubation with NAC
aged mouse lenses = conditions: background statement; cited from earlier work
[9] = listed as N-(2-fluoro-2-methyl-1-oxopropyl)-cysteine
[10] = drawn 1 hour after final dose, LC/MS

Question: With `CCC(C)(C)C(=O)N[C@@H](CS)C(=O)O` as the compound, how does the “Avg. % Compress.” value [1] read?
Answer: 6.29%

Question: Which solubility ([2]; artificial tears, read-out: maximum soluble concentration in artificial tears) does the source give for `CC(=O)SCC(NC(=O)C(C)(C)F)C(=O)O` (stereo not drawn) here?
Answer: 300 mM (≈ 75.4 mg/mL)

Question: Which “improvement over NAC in ex vivo lens stiffness” value [1, 9] does the source give for `CC(C)(F)C(=O)N[C@@H](CS)C(=O)O` [listing 1 of 2 here] here?
Answer: significant improvement

Question: What about the “rank of improvement among tested derivatives, ex vivo lens stiffness” value [1, 9] of the same compound?
Answer: highest mean significance as well as the highest significance vs vehicle

Question: Which results are given for `CC(C)(F)C(=O)N[C@@H](CS)C(=O)O` [listing 2 of 2 here]?
Answer: Safety via histology [3]: positive; increase of tolerability issues including blinking or hyperemia over time [3]: No noticeable increase; solubility [2]: 200 mM (≈ 41.8 mg/mL); improvement over NAC in vivo ([4]; 200 mM vs N-acetylcysteine 20 mM): significant improvement; lens stiffness lost to aging from 2-8 months restored ([4]; 200 mM, relative to 2-month-old untreated mice and 8-month vehicle): 67.9%; average total compression [4]: 281.05 micrometers; lens stiffness versus vehicle treated mice [4]: significantly reduced; rank of improvement among tested derivatives, ex vivo lens stiffness [1]: superior lens stiffness reducing efficacy; Avg. % Compress. [1]: 6.87%; tolerability ([5]; 200 mM, 2×/day for 1 week): tolerable; Histology of treated lenses ([5]; mouse, in vivo): entirely normal; aqueous humor concentration and corneal penetration over NAC and N-pivaloylcysteine [6]: improved; concentration at 1 h [6, 10]: 47 µM

Question: Which “Avg. % Compress.” value [1] does the source give for `COC(C)(C)C(=O)N[C@@H](CS)C(=O)O` here?
Answer: 6.38%

Question: For `CC(C)(C(=O)N[C@@H](CS)C(=O)O)c1ccccc1`, which “Avg. % Compress.” value [1] is on record?
Answer: 6.18%

Question: With `CC(C)(N)C(=O)N[C@@H](CS)C(=O)O` (H-[Aib]-Cys-OH) as the compound, how does the “Avg. % Compress.” value [1] read?
Answer: 5.68%

Question: Which average total compression [4] does the source give for `C[N+](C)(C)CCOC(=O)CCCC[C@@H]1CCSS1` [LACE, Lipoic acid choline ester, reference compound] here?
Answer: 209.68 micrometers

Question: What about the “lens stiffness versus vehicle treated mice” value [4] of the same compound?
Answer: did not significantly improve

Question: Which “Avg. % Compress.” value [1] does the source give for `CC(C)C(=O)N[C@@H](CS)C(=O)O` [N-(isopropylcarbonyl)-cysteine] here?
Answer: 6.71%

Question: Which “Avg. % Compress.” value [1] does the source give for `CCCCCC(=O)N[C@@H](CS)C(=O)O` [N-(n-pentylcarbonyl)-cysteine] here?
Answer: 4.31%

Question: Which “improvement versus vehicle (lens stiffness)” value ([7]; a later study, conditions not given) does the source give for `CC(=O)N[C@H](CS)C(=O)O` [N-acetyl-D-cysteine] here?
Answer: significant improvement versus vehicle but at a reduced power versus NAC

Question: What does the source list for `CC(=O)N[C@@H](CS)C(=O)O` [N-acetyl-cysteine, reference compound]?
Answer: improvement of lens stiffness compared to vehicle [8]: 2.07%; Avg. % Compress. [1]: 5.76%; lens stiffness compared to untreated (vehicle) control lenses ([1]; ex vivo screen): significantly improved; improvement in lens stiffness over vehicle ([7]; 20 mM eyedrops 2×/day for one month): minor and insignificant improvement; improvement in lens stiffness over vehicle ([7]; 100 mM eyedrops 2×/day for one month, 588 mg and 1047 mg weights): significant improvement; aqueous humor concentration [6, 10]: 17 out of 20 samples falling below the limit of detection

Question: Which “Avg. % Compress.” value [1] does the source give for `O=C(Cc1ccccc1)N[C@@H](CS)C(=O)O` [N-benzylcarbonyl-cysteine] here?
Answer: 4.38%

Question: Which “Avg. % Compress.” value [1] does the source give for `O=C(N[C@@H](CS)C(=O)O)C1CC1` [N-cyclopropylcarbonyl-cysteine] here?
Answer: 6.02%

Question: For `CN(C)C(=O)N[C@@H](CS)C(=O)O` [N-dimethylaminocarbonyl-cysteine], which “Avg. % Compress.” value [1] is on record?
Answer: 4.19%

Question: For `O=C(N[C@@H](CS)C(=O)O)c1ccccc1` [N-phenylcarbonyl-cysteine], which “Avg. % Compress.” value [1] is on record?
Answer: 5.98%

Question: Which Safety via histology [3] does the source give for `CC(C)(C)C(=O)N[C@@H](CS)C(=O)O` [N-pivaloylcysteine, N-(2,2-dimethyl-1-oxopropyl)-cysteine] here?
Answer: positive

Question: What about the “increase of tolerability issues including blinking or hyperemia over time” value [3] of the same compound?
Answer: No noticeable increase

Question: What about the “improvement over NAC in ex vivo lens stiffness” value [1] of the same compound?
Answer: significant improvement

Question: What about the “rank of improvement among tested derivatives, ex vivo lens stiffness” value [1] of the same compound?
Answer: largest improvement

Question: And the “Avg. % Compress.” value [1]?
Answer: 6.82%

Question: What about the concentration at 1 h [6, 10] of the same compound?
Answer: 38 µM

Question: With `CC(=O)N[C@@H](CSC(C)=O)C(=O)O` [S,N-diacetylcysteine] as the compound, how does the “lens stiffness in ex vivo treated aged mouse lenses” value (aged mouse lenses) read?
Answer: reduces lens stiffness
